Data: US20230021483A1, “[…] […] METHOD AND CLASSIFICATION OF PHARMACEUTICAL COMPONENTS BY USING TRANSCRIPTOMES” (National Institutes of Biomedical Innovation, Health and …, priority 2016, published 2023)

System: adjuvant-associated biological themes in LV, SP, LN
Summary of the method: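 Enrichment score S sums −log(p) over consensus themes whose names contain a pre-selected adjuvant-associated term such as "stress" or "cytokine". Consensus requires a theme in all three mice of a group, p<0.05. Themes come from TargetMine analysis of genes with eij/ei(c)>2.0, Fisher's exact test, Holm-Bonferroni-corrected.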

“heptanoyl-γ-D-glutamyl-(L)-meso-diaminopimelyl-(D)-alanine [FK565]” was tested, and the “IFN alpha, GO annotation line 1 of 5” value (LV, ID) was 4.54, the “IFN alpha, GO annotation line 2 of 5” value (LV, ID) was 0 and the “IFN alpha: cellular response to interferon-alpha” value (LV, ID) was 0. For the same substance, the “IFN alpha: positive regulation of interferon-alpha production” value (LV, ID) was 0, the “IFN alpha: regulation of interferon-alpha production” value (LV, ID) was 0 and the “IFN beta: cellular response to interferon-beta” value (LV, ID) was 9.65. The “IFN beta: interferon-beta production” value (LV, ID) was 0, the “IFN beta: positive regulation of interferon-beta production” value (LV, ID) was 0 and the “IFN beta: regulation of interferon-beta production” value (LV, ID) was 0. For the same substance, the “IFN beta: response to interferon-beta” value (LV, ID) was 17.3, the “IFN gamma: cellular response to interferon-gamma” value (LV, ID) was 0 and the “IFN gamma: interferon-gamma production” value (LV, ID) was 0. For the same substance, the “IFN gamma: regulation of interferon-gamma production” value (LV, ID) was 0, the “IFN gamma: response to interferon-gamma” value (LV, ID) was 11 and the “NF-kappa B signaling pathway, GO annotation line 1 of 4” value (LV, ID) was 19.8. For the same substance, the “NF-kappa B signaling pathway, GO annotation line 3 of 4” value (LV, ID) was 3.05, the “NF-kappa B signaling pathway, GO annotation line 4 of 4” value (LV, ID) was 5.82 and the TNF signaling pathway (LV, ID) was 30.9. For the same substance, the “adaptive immune response, GO annotation line 1 of 5” value (LV, ID) was 8.99, the “adaptive immune response, GO annotation line 2 of 5” value (LV, ID) was 8.71 and the “adaptive immune response, GO annotation line 3 of 5” value (LV, ID) was 3.56. The “adaptive immune response, GO annotation line 4 of 5” value (LV, ID) was 0, the “adaptive immune response, GO annotation line 5 of 5” value (LV, ID) was 0 and the “apoptosis, GO annotation line 1 of 8” value (LV, ID) was 15.2. For the same substance, the “apoptosis, GO annotation line 2 of 8” value (LV, ID) was 13, the “apoptosis, GO annotation line 3 of 8” value (LV, ID) was 19.9 and the “apoptosis, GO annotation line 4 of 8” value (LV, ID) was 13.9. For the same substance, the “apoptosis, GO annotation line 5 of 8” value (LV, ID) was 6.58, the “apoptosis, GO annotation line 6 of 8” value (LV, ID) was 13.2 and the “apoptosis, GO annotation line 7 of 8” value (LV, ID) was 0. The “apoptosis, GO annotation line 8 of 8” value (LV, ID) was 8.33, the “cell death, GO annotation line 1 of 9” value (LV, ID) was 21.7 and the “cell death, GO annotation line 2 of 9” value (LV, ID) was 16.4. For the same substance, the “cell death, GO annotation line 3 of 9” value (LV, ID) was 15.7, the “cell death, GO annotation line 4 of 9” value (LV, ID) was 14 and the “cell death, GO annotation line 5 of 9” value (LV, ID) was 12.9. The “cell death, GO annotation line 6 of 9” value (LV, ID) was 7.1, the “cell death, GO annotation line 7 of 9” value (LV, ID) was 7.29 and the “cell death, GO annotation line 8 of 9” value (LV, ID) was 0. The “cell death, GO annotation line 9 of 9” value (LV, ID) was 0, the “chemokine, GO annotation line 1 of 4” value (LV, ID) was 0 and the “chemokine, GO annotation line 2 of 4” value (LV, ID) was 0. The “chemokine, GO annotation line 3 of 4” value (LV, ID) was 0, the “chemokine, GO annotation line 4 of 4” value (LV, ID) was 0 and the “chemotaxis, GO annotation line 1 of 11” value (LV, ID) was 16.1. The “chemotaxis, GO annotation line 2 of 11” value (LV, ID) was 0, the “chemotaxis, GO annotation line 4 of 11” value (LV, ID) was 5.48 and the “chemotaxis, GO annotation line 5 of 11” value (LV, ID) was 0. For the same substance, the “chemotaxis, GO annotation line 6 of 11” value (LV, ID) was 5.83, the “chemotaxis, GO annotation line 7 of 11” value (LV, ID) was 6.49 and the “chemotaxis, GO annotation line 8 of 11” value (LV, ID) was 0. For the same substance, the “chemotaxis, GO annotation line 9 of 11” value (LV, ID) was 0, the “chemotaxis, GO annotation line 10 of 11” value (LV, ID) was 0 and the “chemotaxis, GO annotation line 11 of 11” value (LV, ID) was 0. For the same substance, the “cytokine, GO annotation line 1 of 17” value (LV, ID) was 37.8, the “cytokine, GO annotation line 2 of 17” value (LV, ID) was 32.6 and the “cytokine, GO annotation line 3 of 17” value (LV, ID) was 23.6. The “cytokine, GO annotation line 4 of 17” value (LV, ID) was 17.1, the “cytokine, GO annotation line 5 of 17” value (LV, ID) was 30.2 and the “cytokine, GO annotation line 6 of 17” value (LV, ID) was 27.5. For the same substance, the “cytokine, GO annotation line 7 of 17” value (LV, ID) was 8.69, the “cytokine, GO annotation line 8 of 17” value (LV, ID) was 16.2 and the “cytokine, GO annotation line 9 of 17” value (LV, ID) was 17. The “cytokine, GO annotation line 10 of 17” value (LV, ID) was 18.6, the “cytokine, GO annotation line 11 of 17” value (LV, ID) was 3.46 and the “cytokine, GO annotation line 12 of 17” value (LV, ID) was 14. For the same substance, the “cytokine, GO annotation line 13 of 17” value (LV, ID) was 7.57, the “cytokine, GO annotation line 14 of 17” value (LV, ID) was 7.13 and the “cytokine, GO annotation line 15 of 17” value (LV, ID) was 10.1. The “cytokine, GO annotation line 16 of 17” value (LV, ID) was 0, the “cytokine, GO annotation line 17 of 17” value (LV, ID) was 0 and the “defense response, GO annotation line 1 of 11” value (LV, ID) was 57.8. The “defense response, GO annotation line 2 of 11” value (LV, ID) was 29.6, the “defense response, GO annotation line 3 of 11” value (LV, ID) was 24.9 and the “defense response, GO annotation line 4 of 11” value (LV, ID) was 18.4. For the same substance, the “defense response, GO annotation line 5 of 11” value (LV, ID) was 5.98, the “defense response, GO annotation line 6 of 11” value (LV, ID) was 6.22 and the “defense response, GO annotation line 7 of 11” value (LV, ID) was 0. The “defense response, GO annotation line 8 of 11” value (LV, ID) was 0, the “defense response, GO annotation line 9 of 11” value (LV, ID) was 0 and the “defense response, GO annotation line 10 of 11” value (LV, ID) was 0. The “defense response, GO annotation line 11 of 11” value (LV, ID) was 0, the “immune response, GO annotation line 1 of 8” value (LV, ID) was 46.1 and the “immune response, GO annotation line 2 of 8” value (LV, ID) was 20.8. The “immune response, GO annotation line 3 of 8” value (LV, ID) was 19.5, the “immune response, GO annotation line 4 of 8” value (LV, ID) was 11.9 and the “immune response, GO annotation line 5 of 8” value (LV, ID) was 9.97. For the same substance, the “immune response, GO annotation line 6 of 8” value (LV, ID) was 12.1, the “immune response, GO annotation line 7 of 8” value (LV, ID) was 0 and the “immune response, GO annotation line 8 of 8” value (LV, ID) was 0. The “inflammatory response, GO annotation line 1 of 5” value (LV, ID) was 29.8, the “inflammatory response, GO annotation line 2 of 5” value (LV, ID) was 11.4 and the “inflammatory response, GO annotation line 3 of 5” value (LV, ID) was 3.69. For the same substance, the “inflammatory response, GO annotation line 4 of 5” value (LV, ID) was 0, the “inflammatory response, GO annotation line 5 of 5” value (LV, ID) was 0 and the “innate immune response, GO annotation line 1 of 6” value (LV, ID) was 33.7. For the same substance, the “innate immune response, GO annotation line 2 of 6” value (LV, ID) was 19.7, the “innate immune response, GO annotation line 3 of 6” value (LV, ID) was 16.7 and the “innate immune response, GO annotation line 4 of 6” value (LV, ID) was 16.2. For the same substance, the “innate immune response, GO annotation line 5 of 6” value (LV, ID) was 14.3, the “innate immune response, GO annotation line 6 of 6” value (LV, ID) was 0 and the “interleukin-6: interleukin-6 production” value (LV, ID) was 3.6. For the same substance, the “interleukin-6: positive regulation of interleukin-6 production” value (LV, ID) was 0, the “interleukin-6: regulation of interleukin-6 production” value (LV, ID) was 4.17 and the “interleukin-12: interleukin-12 production” value (LV, ID) was 8.76. The “interleukin-12: positive regulation of interleukin-12 production” value (LV, ID) was 3.24, the “interleukin-12: regulation of interleukin-12 production” value (LV, ID) was 9.49 and the “migration, GO annotation line 1 of 10” value (LV, ID) was 13.6. The “migration, GO annotation line 2 of 10” value (LV, ID) was 8.98, the “migration, GO annotation line 3 of 10” value (LV, ID) was 14.2 and the “migration, GO annotation line 4 of 10” value (LV, ID) was 7.86. The “migration, GO annotation line 5 of 10” value (LV, ID) was 7.57, the “migration, GO annotation line 6 of 10” value (LV, ID) was 6.55 and the “migration, GO annotation line 7 of 10” value (LV, ID) was 6.19. The “migration, GO annotation line 8 of 10” value (LV, ID) was 4.49, the “migration, GO annotation line 9 of 10” value (LV, ID) was 0 and the “migration, GO annotation line 10 of 10” value (LV, ID) was 0. For the same substance, the “stress, GO annotation line 1 of 3” value (LV, ID) was 57.7, the “stress, GO annotation line 2 of 3” value (LV, ID) was 28.5 and the “stress, GO annotation line 3 of 3” value (LV, ID) was 9.02. For the same substance, the “wounding, GO annotation line 1 of 3” value (LV, ID) was 12.1, the “wounding, GO annotation line 2 of 3” value (LV, ID) was 12.8 and the “wounding, GO annotation line 3 of 3” value (LV, ID) was 9.45. The “NF-kappa B signaling pathway, GO annotation line 2 of 4” value (mouse, in vivo) was 12.9 and the “chemotaxis, GO annotation line 3 of 11” value (mouse, in vivo) was 15.7.
